Test results taken from patent publication US7767240B2, “Microbiological control in poultry processing” (priority 2001, dated 2010).

Tests used:
[1] = system: Escherichia coli field strain; assay: Chill water bacteria reduction (Example 2); assay type: cell-based
Method: The trial events and experimental design used were as follows: • a) For all treatments a total of 190 birds were processed in a normal fashion. Each treatment involved use of 10 birds. • b) A warm (100° F.) bath was prepared containing 5×10^4 DelMarVa (Delaware-Maryland farm area) field Escherichia coli stain bacteria per mL. At least 200 mL of total bath fluid was provided for each bird. • c) All birds (both controls and treated) were randomly immersed into the warm bath. Both the inside and outside carcass areas were immersed to assure complete coverage. • d) Each separate chill tank water solution (normal tap water adjusted pH to 8.5, ice added to produce temperatures of <45° F.) contained 2×10^3 per mL bacteria. • e) The chill tank water solutions (at least 750 mL each) were be prepared for each disinfecting treatment, and birds were immersed for a period of 1.5 hours. • f) Each 10 minutes during the 1.5 hour chilling period, the birds were completely lifted out of solution and then reimersed in the solution. After the 1.5 hour chilling period, the birds were taken from the chill water and drained for 30 seconds, then promptly (within 5 minutes) placed into a sterile whole bird stomacher bag containing 400 mL diluent (Butterfield's Phosphate Diluent) bacteria collection. • g) Diluent (400 mL) was added to each carcass contained in a sterile stomacher bag while making sure to pour the diluent into the inside of the abdominal cavity. The carcass was rinsed inside and out with a rocking motion for one minute (ca. 35 RPM). […] After the fluids had been diluted, 0.1 mL of fluid was be placed on a MacConkey agar plate and bacteria counts determined. In cases where the goal of a 25-250 count on the plate was not achieved, another dilution and replating were conducted. • j) After all carcasses for each treatment had been dipped, water sample bacteria were determined. • k) Total bacteria per bird were calculated. […]

[2] = system: Salmonella enteritidis ATCC 13076; assay: Bacteria count per bird over 20-day storage (Example 4); assay type: cell-based; details: pH 8
Method: A study was conducted to determine the effect of Clorox® bleach, and 1,3-dibromo-5,5-dimethylhydantoin (DBDMH) on carcass bacteria residual after 1.5 hour in a chill tank solution and spoilage 20-day shelf life longevity (caused by bacteria contamination). Tests were conducted at pH 8 (adjusted by trisodium phosphate). Skin pigmentation (Minolta Color Meter L value or Lightness, a value or redness and b value or yellowness) were determined before and post-processing.
In general the study involved normal processing of 56-day-old birds, immersing carcasses first in a warm bath containing 10^4 per mL Escherichia coli, 10^4 per mL Salmonella enteritidis, 10^4 per mL Pseudomonas aeruginosa, 10^4 per mL Campylobacter jejuni, and 10^4 per mL spoilage bacteria each from […] strains (Listeria monocytogenes and Shigella sonnei). Carcass were then immersed in a chill tank “soup”, containing normal organic fluids (blood, fat, skin, and meat particles) and containing various disinfectants (termed test materials).
A DBDMH stock solution and test solutions, a bacteria stock solution, and a “chicken soup” were prepared as in Example 3. In addition, the bacterial broth treatments, the whole bird wash sampling procedure, and the methodologies used for quantitative or qualitative determinations for bacterial organisms were conducted as in Example 3.
In greater detail the trial events and experimental design used in this group of tests were as follows: • a) Test microorganisms used were: • Escherichia coli ATCC 11229 • Pseudomonas aeruginosa ATCC 15442 • Salmonella enteritidis ATCC 13076 • Shigella sonnei ATCC 9290 • Listeria monocytogenes ATCC 7644 • Campylobacter jejuni ATCC 29428 • b) Test Procedure: All test strains were grown individually at 35° C. for 24 hours in the media specified in Table 12. Cells were harvested by centrifugation at 10,000×g for 10 minutes and washed twice with Butterfield's Phosphate Buffer (BPB of pH 7.2). Cells were resuspended in BPB to obtain a cell suspension of approximately 1.0×10^8 CFU/mL for each microorganism. The target inoculum levels were approximately 10^6 CFU/mL in the final test solutions. In the cases of S. enteritidis and P. aeruginosa the species were washed by pouring into prepared sterile centrifuge tubes with cheesecloth filters. The culture was then pelleted and washed using above techniques and repeated 3 times. • c) The birds (56 days old) were processed under normal commercial conditions. • d) The bacteria were added to a large batch of the “chicken soup”, and then aliquots of the resultant mixture were distributed equally among the chill waters used for each test. Then the particular disinfectant composition under test was added to one of the chill waters. […]

## CC1(C)C(=O)N(Br)C(=O)N1Br [DBDMH, 1,3-dibromo-5,5-dimethylhydantoin]
[1]; 50 ppm Cl2 (equivalent)
  Mean Chill Water Bacteria Reduction (%): 99.9999%
[1]; 100 ppm Cl2 (equivalent)
  Mean Chill Water Bacteria Reduction (%): 99.9999%
[1]; 150 ppm Cl2 (equivalent)
  Mean Chill Water Bacteria Reduction (%): 99.9999%
[2]; Day 0, 10 ppm
  average bacteria count per bird, S. enteritidis: 292 per bird
[2]; Day 0, 20 ppm
  average bacteria count per bird, S. enteritidis: 12 per bird
[2]; Day 2, 10 ppm
  average bacteria count per bird, S. enteritidis: 344 per bird
[2]; Day 2, 20 ppm
  average bacteria count per bird, S. enteritidis: 18 per bird
[2]; Day 4, 10 ppm
  average bacteria count per bird, S. enteritidis: 394 per bird
[2]; Day 4, 20 ppm
  average bacteria count per bird, S. enteritidis: 27 per bird
[2]; Day 6, 10 ppm
  average bacteria count per bird, S. enteritidis: 433 per bird
[2]; Day 6, 20 ppm
  average bacteria count per bird, S. enteritidis: 55 per bird
[2]; Day 8, 10 ppm
  average bacteria count per bird, S. enteritidis: 507 per bird
[2]; Day 8, 20 ppm
  average bacteria count per bird, S. enteritidis: 104 per bird
[2]; Day 10, 10 ppm
  average bacteria count per bird, S. enteritidis: 616 per bird
[2]; Day 10, 20 ppm
  average bacteria count per bird, S. enteritidis: 212 per bird
[2]; Day 12, 10 ppm
  average bacteria count per bird, S. enteritidis: 740 per bird
[2]; Day 12, 20 ppm
  average bacteria count per bird, S. enteritidis: 413 per bird
[2]; Day 14, 10 ppm
  average bacteria count per bird, S. enteritidis: 919 per bird
[2]; Day 14, 20 ppm
  average bacteria count per bird, S. enteritidis: 832 per bird
[2]; Day 16, 10 ppm
  average bacteria count per bird, S. enteritidis: 1081 per bird
[2]; Day 16, 20 ppm
  average bacteria count per bird, S. enteritidis: 1711 per bird
[2]; Day 18, 10 ppm
  average bacteria count per bird, S. enteritidis: 1286 per bird
[2]; Day 18, 20 ppm
  average bacteria count per bird, S. enteritidis: 2074 per bird
[2]; Day 20, 10 ppm
  average bacteria count per bird, S. enteritidis: 1513 per bird
[2]; Day 20, 20 ppm
  average bacteria count per bird, S. enteritidis: 2258 per bird
